This assay concerns the target T1, RORc ligand binding domain (Homo sapiens, UniProt P51449).
T1 construct: host or cells: E. coli
T1 sequence (P51449 269-508 limits assumed): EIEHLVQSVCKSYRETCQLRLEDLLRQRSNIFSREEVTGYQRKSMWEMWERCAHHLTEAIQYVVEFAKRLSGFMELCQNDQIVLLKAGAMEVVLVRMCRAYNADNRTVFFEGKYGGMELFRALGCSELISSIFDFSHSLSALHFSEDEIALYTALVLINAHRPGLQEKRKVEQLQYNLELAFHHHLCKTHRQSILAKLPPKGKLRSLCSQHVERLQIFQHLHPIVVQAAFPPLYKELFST
The assay is described as follows: In vitro RORc ligand binding assay (25-[3H]hydroxycholesterol displacement, filter binding). How it is done:
This assay was used to determine a compound's potency in inhibiting activity of RORc by determining, Kiapp, IC50, or percent inhibition values.
On day of the assay, 100 uL of 0.05% CHAPS (in deionized H2O) was added to all wells of the GFB Unifilter plate and allowed soak for 1 h. A wash buffer of 50 mM HEPES (pH 7.4), 150 mM NaCl, and 5 mM MgCl2 was prepared to wash the filter plate. To prepare an assay buffer, BSA was added to the wash buffer to reach 0.01% and DTT was added to reach 1 mM.
The 20× compound stocks were diluted in DMSO with Assay Buffer 4-fold to reach 5× the final test concentration in 25% DMSO (10 uL compound+30 uL Assay Buffer). Solutions were mixed by aspiration several times with a pipette set on 50 uL volume. For the assay, 10 uL of 5× compound stock solutions in 25% DMSO were added to the assay plate in duplicate.
For two point screening, 10 mM stock compound solutions were diluted in DMSO to obtain 200 uM (20× the high test concentration) and then diluted 10-fold further to reach 20 uM (20× the low test concentration). The 20× stocks were diluted 4-fold with Assay Buffer (10 uL compound+30 uL Assay Buffer) to reach 5× the test concentrations (50 uM and 5 uM) and 10 uL were added to two assay plates for the duplicate wells. With each concentration tested on 2 plates, each set of 80 compounds used 4 assay plates (1 uM and 10 uM, with n=2).
For 25-hydroxycholesterol in 25% DMSO/75% Assay Buffer; 10 uL per well was used for NSB samples. Wells for Total Binding and No Receptor sample determination contained 10 uL of 25% DMSO/75% Assay Buffer per well.
Add 20 uL to all wells to reach 6 nM final concentration in the assay.
Stock receptor solution was diluted in assay buffer to obtain 1.5 ug/mL in Assay Buffer. 20 uL was added to all wells. For No Receptor samples, 20 uL Assay Buffer was substituted for receptor solution.
Assay plates were 96-well polypropylene V-bottom plates. 10 uL of 5× compound in 25% DMSO/75% Assay Buffer was added to Test wells. 10 uL of 25% DMSO/75% Assay Buffer was added to Total Binding or No Receptor wells. 10 uL of 5 uM 25-hydroxycholesterol in 25% DMSO/75% Assay Buffer was added to NSB wells. […] 20 uL of 1.5 ug/mL RORc receptor was added to wells (or 40 uL Assay Buffer to No R wells). Following addition to the wells, the plates were incubated 3 h at 25° C.
Using a Packard Filtermate Harvester, the filter plate were washed 4 times following transfer of the incubated samples. Plates were dry-filtered completely (2 h at 50° C. or overnight at room temperature). 50 uL Microscint 0 was added to all wells and read on Topcount protocol Inverted.
For `CNC(=O)N1CCC[C@H]([C@@]23CC[C@@H](c4cc(-c5c(F)cccc5F)nnc42)C3(C)C)C1` [Compound 96, (R)-3-((5R,8R)-3-(2,6-difluorophenyl)-9,9-dimethyl-5,6,7,8-tetrahydro-5,8-methanocinnolin-8-yl)-N-methylpiperidine-1-carboxamide], the IC50 (as a rule, the concentration at which inhibition is half-maximal) is 0.013 µM. The value for `CC[C@@H](O[C@@]12CC[C@@H](c3cc(-c4c(F)cccc4F)nnc31)C2(C)C)C(=O)OC` [Compound 112, methyl (2R)-2-[[(1R,8S)-5-(2,6-difluorophenyl)-11,11-dimethyl-3,4-diazatricyclo[6.2.1.02,7]undeca-2,4,6-trien-1-yl]oxy]butanoate] was 0.012 µM; that for `CC[C@H](C[C@@]12CC[C@@H](c3cc(-c4c(F)cccc4F)nnc31)C2(C)C)C(N)=O` [Compound 4, (R)-2-(((5R,8R)-3-(2,6-difluorophenyl)-9,9-dimethyl-5,6,7,8-tetrahydro-5,8-methanocinnolin-8-yl)methyl)butanamide] was 0.0824 µM; that for `CC1(C)[C@H]2CC[C@]1([C@H]1CCCN(C(=O)c3ccno3)C1)c1nnc(-c3c(F)cccc3F)cc12` (stereo in doubt) [Compound 166, [3-[5-(2,6-difluorophenyl)-11,11-dimethyl-3,4-diazatricyclo[6.2.1.02,7]undeca-2,4,6-trien-1-yl]-1-piperidyl]-isoxazol-5-yl-methanone] was 0.033 µM.

`CC1(C)[C@H]2CC[C@]1(Oc1nccnc1C(=O)NCCO)c1nnc(-c3c(F)cccc3F)cc12` [Compound 18, 3-(((5S,8R)-3-(2,6-difluorophenyl)-9,9-dimethyl-5,6,7,8-tetrahydro-5,8-methanocinnolin-8-yl)oxy)-N-(2-hydroxyethyl)pyrazine-2-carboxamide]: the 50% inhibitory concentration (IC50) came out at 0.34 µM.

As for `CC1(C)[C@H]2CC[C@]1([C@H]1CCC(=O)NC1)c1nnc(-c3c(F)cccc3F)cc12` [Compound 92, (R)-5-((5R,8R)-3-(2,6-difluorophenyl)-9,9-dimethyl-5,6,7,8-tetrahydro-5,8-methanocinnolin-8-yl)piperidin-2-one], the IC50 was determined as 0.215 µM. In turn, `CC1(C)[C@H]2CC[C@]1([C@H]1CCCN(C(=O)c3c[nH]c(=O)cn3)C1)c1nnc(-c3c(F)cccc3F)cc12` [Compound 121, 5-[3-[5-(2,6-difluorophenyl)-11,11-dimethyl-3,4-diazatricyclo[6.2.1.02,7]undeca-2,4,6-trien-1-yl]piperidine-1-carbonyl]-1H-pyrazin-2-one] returned an IC50 of 0.011 µM. As for `CC1(C)[C@H]2CC[C@]1([C@H]1CCCN(C(=O)c3cccnn3)C1)c1nnc(-c3c(F)cccc3F)cc12` [Compound 168, [3-[5-(2,6-difluorophenyl)-11,11-dimethyl-3,4-diazatricyclo[6.2.1.02,7]undeca-2,4,6-trien-1-yl]-1-piperidyl]-pyridazin-3-yl-methanone], the IC50 amounted to 0.0071 µM.

In turn, `CC1(C)[C@H]2CC[C@]1([C@@H]1CCCNC1=O)c1nnc(-c3c(F)cccc3F)cc12` [Compound 139, 3-[5-(2,6-difluorophenyl)-11,11-dimethyl-3,4-diazatricyclo[6.2.1.02,7]undeca-2,4,6-trien-1-yl]piperidin-2-one] showed an IC50 of 4.4 µM. Consider `CCOC(=O)c1coc(N2CCO[C@@H]([C@@]34CC[C@@H](c5cc(-c6c(F)cccc6F)nnc53)C4(C)C)C2)n1` [Compound 127, ethyl 2-[2-[5-(2,6-difluorophenyl)-11,11-dimethyl-3,4-diazatricyclo[6.2.1.02,7]undeca-2,4,6-trien-1-yl]morpholin-4-yl]oxazole-4-carboxylate], for which the IC50 was determined as 0.005 µM. Next, `CC1(C)[C@H]2CC[C@]1([C@H]1CCCN(C(=O)NC3COC3)C1)c1nnc(-c3c(F)cccc3F)cc12` [Compound 157, 3-[5-(2,6-difluorophenyl)-11,11-dimethyl-3,4-diazatricyclo[6.2.1.02,7]undeca-2,4,6-trien-1-yl]-N-(oxetan-3-yl)piperidine-1-carboxamide]: 0.0061 µM; `COC(=O)N1CCO[C@H]([C@@]23CC[C@@H](c4cc(-c5c(F)cccc5F)nnc42)C3(C)C)C1` [Compound 85, (R)-methyl 2-((5R,8R)-3-(2,6-difluorophenyl)-9,9-dimethyl-5,6,7,8-tetrahydro-5,8-methanocinnolin-8-yl)morpholine-4-carboxylate]: 0.0698 µM.

In turn, `CC[C@@H](O[C@@]12CC[C@@H](c3cc(-c4c(F)cccc4F)nnc31)C2(C)C)C(=O)NNC(C)=O` [Compound 58, (R)-N′-acetyl-2-(((5S,8R)-3-(2,6-difluorophenyl)-9,9-dimethyl-5,6,7,8-tetrahydro-5,8-methanocinnolin-8-yl)oxy)butanehydrazide] returned an IC50 of 0.105 µM. The molecule `CCNC(=O)N1CCC[C@H]([C@@]23CC[C@@H](c4cc(-c5c(F)cccc5F)nnc42)C3(C)C)C1` [Compound 136, 3-[5-(2,6-difluorophenyl)-11,11-dimethyl-3,4-diazatricyclo[6.2.1.02,7]undeca-2,4,6-trien-1-yl]-N-ethyl-piperidine-1-carboxamide] returned an IC50 of 0.029 µM. Take `CC[C@@H](O[C@@]12CC[C@@H](c3cc(-c4c(F)cccc4F)nnc31)C2(C)C)C(=O)N(C)CCOC` [Compound 100, (R)-2-(((5S,8R)-3-(2,6-difluorophenyl)-9,9-dimethyl-5,6,7,8-tetrahydro-5,8-methanocinnolin-8-yl)oxy)-N-(2-methoxyethyl)-N-methylbutanamide]: the IC50 amounted to 0.0464 µM. Next, `CC1(C)[C@H]2CC[C@]1([C@H]1CN(c3ncn[nH]3)CCO1)c1nnc(-c3c(F)cccc3F)cc12` [Compound 144, 2-[5-(2,6-difluorophenyl)-11,11-dimethyl-3,4-diazatricyclo[6.2.1.02,7]undeca-2,4,6-trien-1-yl]-4-(1H-1,2,4-triazol-5-yl)morpholine]: 0.034 µM; `CC1(C)[C@H]2CC[C@]1([C@@H]1CNCCO1)c1nnc(-c3c(F)cccc3F)cc12` [Compound 66, (R)-2-((5R,8R)-3-(2,6-difluorophenyl)-9,9-dimethyl-5,6,7,8-tetrahydro-5,8-methanocinnolin-8-yl)morpholine]: 0.458 µM; `CCOC(=O)c1coc(N2CCO[C@H]([C@@]34CC[C@@H](c5cc(-c6c(F)cccc6F)nnc53)C4(C)C)C2)n1` [Compound 126, ethyl 2-[2[5-(2,6-difluorophenyl)-11,11-dimethyl-3,4-diazatricyclo[6.2.1.02,7]undeca-2,4,6-trien-1-yl]morpholin-4-yl]oxazole-4-carboxylate]: 0.43 µM. Turning to `CC1(C)[C@H]2CC[C@]1([C@H]1CCCN(C(=O)NC3CC(O)C3)C1)c1nnc(-c3c(F)cccc3F)cc12` (stereo in doubt) [Compound 148, 3-[5-(2,6-difluorophenyl)-11,11-dimethyl-3,4-diazatricyclo[6.2.1.02,7]undeca-2,4,6-trien-1-yl]-N-(3-hydroxycyclobutyl)piperidine-1-carboxamide], the IC50 was 0.37 µM. In the case of `CN1CCN(C(N)=O)C[C@H]1[C@@]12CC[C@@H](c3cc(-c4c(F)cccc4F)nnc31)C2(C)C` [Compound 179, 3-[5-(2,6-difluorophenyl)-11,11-dimethyl-3,4-diazatricyclo[6.2.1.02,7]undeca-2,4,6-trien-1-yl]-4-methyl-piperazine-1-carboxamide], the concentration for half-maximal inhibition (IC50) turned out to be 0.0029 µM. Molecule `CC1(C)[C@H]2CC[C@]1([C@H]1CCCN(c3cc[nH]c(=O)c3)C1)c1nnc(-c3c(F)cccc3F)cc12` [Compound 172, 4-[3-[5-(2,6-difluorophenyl)-11,11-dimethyl-3,4-diazatricyclo[6.2.1.02,7]undeca-2,4,6-trien-1-yl]-1-piperidyl]-1H-pyridin-2-one] showed an IC50 of 0.02 µM. Molecule `CNS(=O)(=O)N1CCC[C@H]([C@@]23CC[C@@H](c4cc(-c5c(F)cccc5F)nnc42)C3(C)C)C1` [Compound 138, 3-[5-(2,6-difluorophenyl)-11,11-dimethyl-3,4-diazatricyclo[6.2.1.02,7]undeca-2,4,6-trien-1-yl]-N-methyl-piperidine-1-sulfonamide] returned an IC50 of 0.012 µM.

(Values after patent publication US9994551B2, “Pyridazine derivatives as RORc modulators” (Genentech, Inc., priority 2015, dated 2018).)
